Results reported in patent US9045781B2, “Process for the production of optically-active esters of lactic acid and lactyllactic acid” (Plaxica Limited, priority 2011, dated 2015).

Excerpt: The solubility of lactide in different solvents was investigated.

For `CC1OC(=O)C(C)OC1=O` (racemic) [lactide, 3,6-dimethyl-1,4-dioxan-2,5-dione], the “Solubility of lactide in a n-BuOH/acetone system” value was 1.44 g and the “Solubility of lactide in different solvents, rank order” value was “Acetone>>n-BuOH>t-BuOH”.
